Patent US20070060621A1, “Methods and compositions for the administration of prodrugs of proton pump inhibitors” (priority 2004, published 2007)

Assays:
Assay type in all cases: physicochemical
[1] = Hygroscopicity of compound 1 on storage
Procedure: The physicochemical properties of compound 1 were analyzed.

[2] = Stability of compound 1 at 0.02 mg/mL at 25° C. in water, NaCl salt and phosphate buffer; details: for % Remaining: 25° C., 0.02 mg/mL; for Half Life (t½) / Rate Constant (k) / Shelf life (t90%): first order decay from 3-29 days
Procedure: FIG. 1 is a plot of the % of the original concentration of compound remaining over time. The original concentration of compound 1 was 0.02 mg/mL, and stability was assessed at 25° C. in 1) water, 2) NaCl salt (μ=0.15), 3) NaCl salt (μ=0.5), 4) phosphate buffer (pH 7.0, μ=0.15), and 5) phosphate buffer (pH 7.0, μ=0.5).
FIG. 2 is a log plot of the data of FIG. 1.
The stability of compound 1 at a concentration of 0.02 mg/mL in water at 25° C. was assessed in 1) water, 2) NaCl salt (μ=0.15), 3) NaCl salt (μ=0.5), 4) phosphate buffer (pH 7.0, μ=0.15), and 5) phosphate buffer (pH 7.0, μ=0.5). For the buffer solutions, the ionic strength (μ) was adjusted using sodium chloride, and the buffer concentration of the two solutions was equal (0.1 M). The amount of remaining compound 1 is presented as the % of the original concentration of 0.02 mg/mL for each sample in Table 3a and in FIG. 1.

[3] = Stability profile at 25° C. in buffered aqueous solutions
From the text: The base-catalyzed degradation is unexpected because the commercial proton pump inhibitors are stabilized in aqueous solutions by adjusting the solution to high pH.

[4] = Na phosphate buffer, u = 0.15, pH 7.0, 25° C.
[5] = Na phosphate buffer, u = 0.5, pH 7.0, 25° C.
[6] = pH 3, Citric Acid (0.1 M)/Na2HPO4 (0.2 M)
[7] = pH 5, Citric Acid (0.1 M)/Na2HPO4 (0.2 M)
[8] = pH 7, sodium phosphate (0.1-0.2 M)
[9] = pH 7.4, sodium phosphate (0.1-0.2 M)
[10] = pH 9, sodium phosphate (0.1-0.2 M)
[11] = pH 10, sodium phosphate (0.1-0.2 M)

SMILES: COc1ccc2c(c1)nc([S+]([O-])Cc1ncc(C)c(OC)c1C)n2S(=O)(=O)c1ccc(OCC(=O)O)cc1 (centres unmarked) [Compound 1]
- hygroscopicity ([1]; 14 days of storage at 25° C. at 75% relative humidity): hygroscopic
- weight gain ([1]; after 14 days of storage at 25° C. at 75% relative humidity): 9%
- % Remaining ([2]; Day 1, NaCL, u = 0.15 (pH 6.6)): 84.134%
- % Remaining ([2]; Day 1, NaCL, u = 0.5 (pH 6.2)): 87.598%
- % Remaining ([2]; Day 1, Phosphate buffer, u = 0.15 (pH 7.0)): 96.294%
- % Remaining ([2]; Day 1, Phosphate buffer, u = 0.5 (pH 7.0)): 96.709%
- % Remaining ([2]; Day 1, Water (pH 7.2)): 92.212%
- % Remaining ([2]; Day 3, NaCL, u = 0.15 (pH 6.6)): 76.960%
- % Remaining ([2]; Day 3, NaCL, u = 0.5 (pH 6.2)): 80.750%
- % Remaining ([2]; Day 3, Phosphate buffer, u = 0.15 (pH 7.0)): 90.597%
- % Remaining ([2]; Day 3, Phosphate buffer, u = 0.5 (pH 7.0)): 90.087%
- % Remaining ([2]; Day 3, Water (pH 7.2)): 86.085%
- % Remaining ([2]; Day 4, NaCL, u = 0.15 (pH 6.6)): 77.037%
- % Remaining ([2]; Day 4, NaCL, u = 0.5 (pH 6.2)): 78.348%
- % Remaining ([2]; Day 4, Phosphate buffer, u = 0.15 (pH 7.0)): 87.434%
- % Remaining ([2]; Day 4, Phosphate buffer, u = 0.5 (pH 7.0)): 85.994%
- % Remaining ([2]; Day 4, Water (pH 7.2)): 86.410%
- % Remaining ([2]; Day 7, NaCL, u = 0.15 (pH 6.6)): 75.398%
- % Remaining ([2]; Day 7, NaCL, u = 0.5 (pH 6.2)): 76.513%
- % Remaining ([2]; Day 7, Phosphate buffer, u = 0.15 (pH 7.0)): 80.995%
- % Remaining ([2]; Day 7, Phosphate buffer, u = 0.5 (pH 7.0)): 76.165%
- % Remaining ([2]; Day 7, Water (pH 7.2)): 84.569%
- % Remaining ([2]; Day 9, NaCL, u = 0.15 (pH 6.6)): 71.861%
- % Remaining ([2]; Day 9, NaCL, u = 0.5 (pH 6.2)): 74.482%
- % Remaining ([2]; Day 9, Phosphate buffer, u = 0.15 (pH 7.0)): 76.176%
- % Remaining ([2]; Day 9, Phosphate buffer, u = 0.5 (pH 7.0)): 70.768%
- % Remaining ([2]; Day 9, Water (pH 7.2)): 84.452%
- % Remaining ([2]; Day 11, NaCL, u = 0.15 (pH 6.6)): 73.763%
- % Remaining ([2]; Day 11, NaCL, u = 0.5 (pH 6.2)): 74.312%
- % Remaining ([2]; Day 11, Phosphate buffer, u = 0.15 (pH 7.0)): 74.520%
- % Remaining ([2]; Day 11, Phosphate buffer, u = 0.5 (pH 7.0)): 67.826%
- % Remaining ([2]; Day 11, Water (pH 7.2)): 86.930%
- % Remaining ([2]; Day 13, NaCL, u = 0.15 (pH 6.6)): 72.390%
- % Remaining ([2]; Day 13, NaCL, u = 0.5 (pH 6.2)): 71.691%
- % Remaining ([2]; Day 13, Phosphate buffer, u = 0.15 (pH 7.0)): 68.020%
- % Remaining ([2]; Day 13, Water (pH 7.2)): 83.661%
- % Remaining ([2]; Day 15, NaCL, u = 0.15 (pH 6.6)): 67.858%
- % Remaining ([2]; Day 15, NaCL, u = 0.5 (pH 6.2)): 68.167%
- % Remaining ([2]; Day 15, Phosphate buffer, u = 0.15 (pH 7.0)): 62.389%
- % Remaining ([2]; Day 15, Phosphate buffer, u = 0.5 (pH 7.0)): 52.494%
- % Remaining ([2]; Day 15, Water (pH 7.2)): 80.913%
- % Remaining ([2]; Day 20, NaCL, u = 0.15 (pH 6.6)): 64.953%
- % Remaining ([2]; Day 20, NaCL, u = 0.5 (pH 6.2)): 65.173%
- % Remaining ([2]; Day 20, Phosphate buffer, u = 0.15 (pH 7.0)): 54.360%
- % Remaining ([2]; Day 20, Phosphate buffer, u = 0.5 (pH 7.0)): 44.057%
- % Remaining ([2]; Day 20, Water (pH 7.2)): 78.768%
- % Remaining ([2]; Day 24, NaCL, u = 0.15 (pH 6.6)): 64.848%
- % Remaining ([2]; Day 24, NaCL, u = 0.5 (pH 6.2)): 65.753%
- % Remaining ([2]; Day 24, Phosphate buffer, u = 0.15 (pH 7.0)): 50.246%
- % Remaining ([2]; Day 24, Phosphate buffer, u = 0.5 (pH 7.0)): 39.181%
- % Remaining ([2]; Day 24, Water (pH 7.2)): 79.915%
- % Remaining ([2]; Day 29, NaCL, u = 0.15 (pH 6.6)): 62.731%
- % Remaining ([2]; Day 29, NaCL, u = 0.5 (pH 6.2)): 62.867%
- % Remaining ([2]; Day 29, Phosphate buffer, u = 0.15 (pH 7.0)): 43.321%
- % Remaining ([2]; Day 29, Phosphate buffer, u = 0.5 (pH 7.0)): 32.626%
- % Remaining ([2]; Day 29, Water (pH 7.2)): 78.412%
- Half Life (t½) [2, 4]: 24.063 days
- Rate Constant (k) [2, 4]: 0.0288 day⁻¹
- Shelf life (t90%) [2, 4]: 3.658 days
- Half Life (t½) [2, 5]: 17.589 days
- Rate Constant (k) [2, 5]: 0.0394 day⁻¹
- Shelf life (t90%) [2, 5]: 2.674 days
- Half Life (t½) ([2]; NaCl, u = 0.15, pH 6.6, 25° C.): 80.581 days
- Rate Constant (k) ([2]; NaCl, u = 0.15, pH 6.6, 25° C.): 0.0086 day⁻¹
- Shelf life (t90%) ([2]; NaCl, u = 0.15, pH 6.6, 25° C.): 12.251 days
- Half Life (t½) ([2]; NaCl, u = 0.5, pH 6.6, 25° C.): 75.326 days
- Rate Constant (k) ([2]; NaCl, u = 0.5, pH 6.6, 25° C.): 0.0092 day⁻¹
- Shelf life (t90%) ([2]; NaCl, u = 0.5, pH 6.6, 25° C.): 11.452 days
- Half Life (t½) ([2]; water, pH 7.2, 25° C.): 161.163 days
- Rate Constant (k) ([2]; water, pH 7.2, 25° C.): 0.0043 day⁻¹
- Shelf life (t90%) ([2]; water, pH 7.2, 25° C.): 24.502 days
- Degradation Rate Constant (k) ([3]; No buffer): 0.0002 h⁻¹
- Half-life (t1/2) ([3]; No buffer): 119.32 days
- Shelf life (t90%) ([3]; No buffer): 435.4 h
- Degradation Rate Constant (k) ([3]; pH 1, 0.1 M HCl): 0.194 h⁻¹
- Half-life (t1/2) ([3]; pH 1, 0.1 M HCl): 0.15 days
- Shelf life (t90%) ([3]; pH 1, 0.1 M HCl): 0.5 h
- Degradation Rate Constant (k) [3, 6]: 0.009 h⁻¹
- Half-life (t1/2) [3, 6]: 3.25 days
- Shelf life (t90%) [3, 6]: 11.9 h
- Degradation Rate Constant (k) [3, 7]: 0.008 h⁻¹
- Half-life (t1/2) [3, 7]: 3.72 days
- Shelf life (t90%) [3, 7]: 13.6 h
- Degradation Rate Constant (k) [3, 8]: 0.002 h⁻¹
- Half-life (t1/2) [3, 8]: 11.95 days
- Shelf life (t90%) [3, 8]: 43.6 h
- Degradation Rate Constant (k) [3, 9]: 0.002 h⁻¹
- Half-life (t1/2) [3, 9]: 12.13 days
- Shelf life (t90%) [3, 9]: 44.3 h
- Degradation Rate Constant (k) [3, 10]: 0.030 h⁻¹
- Half-life (t1/2) [3, 10]: 0.958 days
- Shelf life (t90%) [3, 10]: 3.5 h
- Degradation Rate Constant (k) [3, 11]: 0.298 h⁻¹
- Half-life (t1/2) [3, 11]: 0.0958 days
- Shelf life (t90%) [3, 11]: 0.4 h
